# Counter-ions that a name gives are not always drawn.
# Tested on: not given
# Assay: not given
# Conditions: prior art; cited from earlier work
row,Compound,side effects in thrombolysis
1,"Streptokinase: a streptococcal protein, has been used for thrombolysis",side effects of pyrogenicity and anaphylactic reactions

# Tested on: fibrinolytic activity
# Assay: not given
# Conditions: prior art; cited from earlier work
row,Compound,fibrinolytic activity in vivo
1,NCCc1c[nH]cn1 [histamine],Fibrinolytic activity in vivo can be induced
2,O=C(O)c1cccnc1 [nicotinic acid],Fibrinolytic activity in vivo can be induced
3,CCN(CC)CCOC(=O)c1ccc(N)cc1 [procaine],Fibrinolytic activity in vivo can be induced
4,CNC[C@H](O)c1ccc(O)c(O)c1 [epinephrine],Fibrinolytic activity in vivo can be induced
5,CCCCC1C(=O)N(c2ccccc2)N(c2ccccc2)C1=O [phenylbutazone],Fibrinolytic activity in vivo can be induced
6,NCCc1c[nH]c2ccc(O)cc12 [serotonin],Fibrinolytic activity in vivo can be induced

# Tested on: ADP-induced platelet aggregation and experimental thrombosis
# Assay: not given
# Conditions: literature; cited from earlier work
row,Compound,effect against ADP-induced platelet aggregation and experimental thrombosis
1,"OCCN(CCO)c1nc(N2CCCCC2)c2nc(N(CCO)CCO)nc(N3CCCCC3)c2n1 [dipyridamole, 2,2',2"",2'""-[(4,8-dipiperidinopyrimido[5,4-d]pyrimidine-2,6-diyl)dinitrilo]tetraethanol, reference compound]",generally recognized as being effective against ADP-induced platelet aggregation and experimental thrombosis

# Tested on: ADP-induced platelet aggregation
# Assay: inhibition of ADP-induced platelet aggregation in platelet rich plasma
# Format: cell-based
# Conditions: 5 min; human platelet rich plasma, 37° C, five minutes incubation prior to ADP; read-out: ED50 (amount which reduces platelet aggregation by 50%)
# Method: Another selection of representative compounds within the scope of the present invention, including some listed in the previous table, have been tested for their ability to inhibit platelet aggregation. Citrated whole blood from human volunteers, who had not taken any medicine for the previous week, was centrifuged to obtain platelet rich plasma. On addition of ADP (adenosine diphosphate) to this platelet rich plasma, incubated at 37° C with constant stirring, in an aggregometer, optical density changes can be observed which are caused by platelet aggregation. Thus, the extent of ADP-induced platelet aggregation is determined for each sample of blood used. Compounds to be tested were incubated for five minutes prior to the addition of ADP. The ED50 of a compound is that amount, in γ/ml, which reduces platelet aggregation by 50% under the above conditions.
row,Compound,IC50
1,"COc1cc2c(cc1OC)C(CCCC(CCCC1=NCCc3cc(OC)c(OC)cc31)C1=NCCc3cc(OC)c(OC)cc31)=NCC2 [Example 19.1a, 1,1',1""-(1,4,7-heptanetriyl)tris[3,4-dihydro-6,7-dimethoxyisoquinoline]]",< 40 µg/mL
2,"COc1cc2c(cc1OC)C(CCC(CCC1NCCc3cc(OC)c(OC)cc31)(CCC1NCCc3cc(OC)c(OC)cc31)[N+](=O)[O-])NCC2 (centres unmarked) [Example 18.1, 1,1'-{3-nitro-3-[2-(1,2,3,4-tetrahydro-6,7-dimethoxy-1-isoquinolinyl)ethyl]pentamethylene}bis[1,2,3,4-tetrahydro-6,7-dimethoxyisoquinoline]]",9 µg/mL
3,"COc1cc2c(cc1OC)C(CCCCC(CCCCC(CCCCC1=NCCc3cc(OC)c(OC)cc31)C1=NCCc3cc(OC)c(OC)cc31)C1=NCCc3cc(OC)c(OC)cc31)=NCC2.Cl.Cl.Cl.Cl.O.O.O.O (centres unmarked) [Example 15.1a, 1,1',1"",1'""-(1,5,10,14-tetradecanetetrayl)tetrakis[3,4-dihydro-6,7-dimethoxyisoquinoline] tetrahydrochloride tetrahydrate]",27 µg/mL
4,"OCCN(CCO)c1nc(N2CCCCC2)c2nc(N(CCO)CCO)nc(N3CCCCC3)c2n1 [dipyridamole, 2,2',2"",2'""-[(4,8-dipiperidinopyrimido[5,4-d]pyrimidine-2,6-diyl)dinitrilo]tetraethanol, reference compound]",270 µg/mL
5,"COc1cc2c(cc1OC)C(CCC(CCC1=NCCc3cc(OC)c(OC)cc31)(CCC1=NCCc3cc(OC)c(OC)cc31)[N+](=O)[O-])=NCC2.Cl.Cl.Cl [Example 18.1a, 1,1'-{3-[2-(3,4-dihydro-6,7-dimethoxy-1-isoquinolinyl)ethyl] -3-nitropentamethylene}bis[3,4-dihydro-6,7-dimethoxyisoquinoline] trihydrochloride]",6 µg/mL
6,"COc1cc2c(cc1OC)C(CCC(CCC1=NCCc3cc(OC)c(OC)cc31)CCC(CC1=NCCc3cc(OC)c(OC)cc31)c1ccccc1)=NCC2.Cl.Cl.Cl.O.O.O (centres unmarked) [Example 7.1a, 1,1'-{5-[2-(3,4-dihydro-6,7-dimethoxy-1-isoquinolinyl)ethyl]-2-phenylheptamethylene}bis[3,4-dihydro-6,7-dimethoxyisoquinoline] trihydrochloride trihydrate]",< 40 µg/mL
7,"COc1cc2c(cc1OC)C(CCOCC(COCCC1=NCCc3cc(OC)c(OC)cc31)OCCC1=NCCc3cc(OC)c(OC)cc31)=NCC2 [Example 17.1a, 1,1',1""-[1,2,3-propanetriyltri(oxyethylene)]tris[3,4-dihydro-6,7-dimethoxyisoquinoline]]",< 40 µg/mL
8,"COc1cc2c(cc1OC)C(CCCCC(CCC1=NCCc3cc(OC)c(OC)cc31)CCC1=NCCc3cc(OC)c(OC)cc31)=NCC2.Cl.Cl.Cl.O.O.O [Example 1.1a, 1,1'-{3-[2-(3,4-dihydro-6,7-dimethoxy-1-isoquinolinyl)ethyl]heptamethylene}bis[3,4-dihydro-6,7-dimethoxyisoquinoline] trihydrochloride trihydrate]",< 40 µg/mL

# Tested on: whole blood clot
# Assay: whole blood clot lysis method (fibrinolytic activity), blood from rats given compound intraperitoneally
# Format: in vivo
# Conditions: Rattus norvegicus, ip, 4 h, intraperitoneal, blood diluted 1:10, clotted with thrombin, 37° C, four hours, read-out: ED50 (dose which causes lysis of 50% of the clot)
# Method: Certain representative compounds within the scope of the present invention have been tested for fibrinolytic activity by the whole blood clot lysis method, as modified from the procedure of Billimoria et al.^1 In this method, blood from rats given a fibrinolytic compound intraperitoneally is taken and diluted 1:10. A standard amount is clotted with thrombin, incubated at 37° C for four hours, and the amount of clot that has lysed is determined. […] These ED50 values for the various compounds tested are set forth in the following table, each of the compounds being identified by name and by the number of the ensuing example in which its synthesis is described. […] ^1 Billimoria, […]., James, […]., Lancet II, 471 (1959)
row,Compound,ED50
1,"COc1cc2c(cc1OC)C(CCOCC(COCCC1NCCc3cc(OC)c(OC)cc31)OCCC1NCCc3cc(OC)c(OC)cc31)NCC2.Cl.Cl.Cl (centres unmarked) [Example 17.1, 1,1',1""-[1,2,3-PROPANETRIYLTRI-(OXYETHYLENE)]TRIS[1,2,3,4-TETRAHYDRO-6,7-DIMETHOXYISOQUINOLINE] TRIHYDROCHLORIDE]",0.8 mg/kg
2,"COc1cc2c(cc1OC)[C@H](CCCC[C@H]1NCCc3cc(OC)c(OC)cc31)NCC2 [bisobrin dihydrochloride, 1,1'-tetramethylenebis[1,2,3,4-tetrahydro-6,7-dimethoxyisoquinoline], reference compound]",0.5 mg/kg
3,"COc1cc2c(cc1OC)C(CCCCC(CCCCC(CCCCC1NCCc3cc(OC)c(OC)cc31)C1NCCc3cc(OC)c(OC)cc31)C1NCCc3cc(OC)c(OC)cc31)NCC2 (centres unmarked) [Example 15.1, 1,1',1"",1'""-(1,5,10,14-tetradecanetetrayl)tetrakis[1,2,3,4-tetrahydro-6,7-dimethoxyisoquinoline]]",0.04 mg/kg
4,"COc1cc2c(cc1OC)C(CCC(CCC1NCCc3cc(OC)c(OC)cc31)(CCC1NCCc3cc(OC)c(OC)cc31)[N+](=O)[O-])NCC2 (centres unmarked) [Example 18.1, 1,1'-{3-nitro-3-[2-(1,2,3,4-tetrahydro-6,7-dimethoxy-1-isoquinolinyl)ethyl]pentamethylene}bis[1,2,3,4-tetrahydro-6,7-dimethoxyisoquinoline]]",< 0.6 mg/kg
5,"COc1cc2c(cc1OC)C(CCCC(CCCC(CCCC1NCCc3cc(OC)c(OC)cc31)C1NCCc3cc(OC)c(OC)cc31)C1NCCc3cc(OC)c(OC)cc31)NCC2.Cl.Cl.Cl.Cl.O.O.O.O (centres unmarked) [Example 2.1, 1,1',1"",1'""-(1,4,8,11-Undecanetetrayl)tetrakis[1,2,3,4-tetrahydro-6,7-dimethoxyisoquinoline] tetrahydrochloride tetrahydrate]",0.03 mg/kg
6,"COc1cc2c(cc1OC)C(CCCC(CCCCC(CCCC1NCCc3cc(OC)c(OC)cc31)C1NCCc3cc(OC)c(OC)cc31)C1NCCc3cc(OC)c(OC)cc31)NCC2 (centres unmarked) [Example 16.1, 1,1',1"",1'""-(1,4,9,12-dodecanetetrayl)tetrakis[1,2,3,4-tetrahydro-6,7-dimethoxyisoquinoline]]",0.03 mg/kg
7,"COc1cc2c(cc1OC)C(CCC(CCC(CC1NCCc3cc(OC)c(OC)cc31)c1ccccc1)CCC1NCCc3cc(OC)c(OC)cc31)NCC2 (centres unmarked) [Example 7.1, 1,1'-{2-phenyl-5-[2-(1,2,3,4-tetrahydro-6,7-dimethoxy-1-isoquinolinyl)ethyl]heptamethylene}bis[1,2,3,4-tetrahydro-6,7-dimethoxyisoquinoline]]",< 0.1 mg/kg
8,"COc1cc2c(cc1OC)C(CCN(CCC1NCCc3cc(OC)c(OC)cc31)CCC1NCCc3cc(OC)c(OC)cc31)NCC2 (centres unmarked) [Example 17.3, 1,1',1""-(nitrilotriethylene)tris[1,2,3,4-tetrahydro-6,7-dimethoxyisoquinoline]]",0.7 mg/kg
9,"COc1ccc2c(c1)CCNC2CCCCC(CCC1NCCc2cc(OC)ccc21)CCC1NCCc2cc(OC)ccc21 (centres unmarked) [Example 10.1, 1,1'-{3-[2-(1,2,3,4-tetrahydro-6-methoxy-1-isoquinolinyl)ethyl]heptamethylene}bis[1,2,3,4-tetrahydro-6-methoxyisoquinoline]]",0.5 mg/kg
10,"COc1cc2c(cc1OC)C(CCCC(CCCC1NCCc3cc(OC)c(OC)cc31)C1NCCc3cc(OC)c(OC)cc31)NCC2.Cl.Cl.Cl.O.O.O (centres unmarked) [Example 19.1, 1,1',1""-(1,4,7-HEPTANETRIYL)TRIS[1,2,3,4-TETRAHYDRO-6,7-DIMETHOXYISOQUINOLINE] TRIHYDROCHLORIDE TRIHYDRATE]",0.03 mg/kg
11,"COc1cc2c(cc1OC)C(CCC(CCC(CCC1NCCc3cc(OC)c(OC)cc31)CCC1NCCc3cc(OC)c(OC)cc31)CCC1NCCc3cc(OC)c(OC)cc31)NCC2.Cl.Cl.Cl.Cl.O.O.O.O (centres unmarked) [Example 5.1, 1,1'-{3,6-bis[2-(1,2,3,4-tetrahydro-6,7-dimethoxy-1-isoquinolinyl)ethyl]-octamethylene}bis[1,2,3,4-tetrahydro-6,7-dimethoxyisoquinoline] tetrahydrochloride tetrahydrate]",0.06 mg/kg
12,"COc1cc2c(cc1OC)C(CCC(CCC1NCCc3cc(OC)c(OC)cc31)CCC(C)(C)CC1NCCc3cc(OC)c(OC)cc31)NCC2 (centres unmarked) [Example 8.1, 1,1'-{2,2-dimethyl-5-[2-(1,2,3,4-tetrahydro-6,7-dimethoxy-1-isoquinolinyl)ethyl]heptamethylene}bis[1,2,3,4-tetrahydro-6,7-dimethoxyisoquinoline]]",< 0.4 mg/kg
13,"COc1cc2c(cc1OC)C(CCCCC(SCC1NCCc3cc(OC)c(OC)cc31)C1NCCc3cc(OC)c(OC)cc31)NCC2 (centres unmarked) [Example 6.1, 1,1'-[1-[(1,2,3,4-tetrahydro-6,7-dimethoxy-1-isoquinolinylmethyl)thio]pentamethylene]bis[1,2,3,4-tetrahydro-6,7-dimethoxyisoquinoline]]",< 0.6 mg/kg

# Reference: patent publication US4107165A, “Tris[tetrahydroisoquinoline] compounds” (Endo Laboratories, priority 1976, dated 1978)
